Converted amounts (≈) assume the structure as drawn.
Columns and labels:
[1] = target: T1, lipase (EC 3.1.1.3, from Saccharomyces cerevisiae); assay: p-nitrophenyl butyrate hydrolysis, absorbance at […] nm; type: biochemical; details: 30 min pre-incubation, 37 °C; substrate pNPB; positive control
T1 construct: gene TGL2; discussion speaks of pancreatic lipase, but the assay used the yeast-labelled enzyme

[2] = tested on: T1, lipase (EC 3.1.1.3, from Saccharomyces cerevisiae); assay: pNPB hydrolysis at […] nm, Lineweaver-Burk plot; type: biochemical; details: no inhibitor; unit printed as µg, not a concentration; pNPB 0.0–10 mg/mL

| IC50 [1] [µg/mL] | Km [2] [µg] | SMILES |
| --- | --- | --- |
| 213 ± 5.0 (≈ 430 µM) | – | CCCCCCCCCCC[C@@H](C[C@@H]1OC(=O)[C@H]1CCCCCC)OC(=O)[C@H](CC(C)C)NC=O [orlistat] |
| – | 5.08 ± 0.23 | CCCC(=O)Oc1ccc([N+](=O)[O-])cc1 [p-nitrophenyl butyrate] |

Source: publication PMC11143312, “Antioxidant, anti-amylase, anti-lipase, and efficiency of Satureja fatty acid on the anti-inflammatory parameters in lipopolysaccharide-stimulated macrophage through Nrf2/NF-kB/NADH oxidase pathway” (Scientific Reports, 2024)
